Tests used:
Conditions in all cases: Compound concentration 1.0 uM
[1] = target: T1, Dual specificity protein kinase TTK (Homo sapiens) (UniProt P33981); experiment: TTK(h) Eurofins kinase panel
T1 sequence (whole entry): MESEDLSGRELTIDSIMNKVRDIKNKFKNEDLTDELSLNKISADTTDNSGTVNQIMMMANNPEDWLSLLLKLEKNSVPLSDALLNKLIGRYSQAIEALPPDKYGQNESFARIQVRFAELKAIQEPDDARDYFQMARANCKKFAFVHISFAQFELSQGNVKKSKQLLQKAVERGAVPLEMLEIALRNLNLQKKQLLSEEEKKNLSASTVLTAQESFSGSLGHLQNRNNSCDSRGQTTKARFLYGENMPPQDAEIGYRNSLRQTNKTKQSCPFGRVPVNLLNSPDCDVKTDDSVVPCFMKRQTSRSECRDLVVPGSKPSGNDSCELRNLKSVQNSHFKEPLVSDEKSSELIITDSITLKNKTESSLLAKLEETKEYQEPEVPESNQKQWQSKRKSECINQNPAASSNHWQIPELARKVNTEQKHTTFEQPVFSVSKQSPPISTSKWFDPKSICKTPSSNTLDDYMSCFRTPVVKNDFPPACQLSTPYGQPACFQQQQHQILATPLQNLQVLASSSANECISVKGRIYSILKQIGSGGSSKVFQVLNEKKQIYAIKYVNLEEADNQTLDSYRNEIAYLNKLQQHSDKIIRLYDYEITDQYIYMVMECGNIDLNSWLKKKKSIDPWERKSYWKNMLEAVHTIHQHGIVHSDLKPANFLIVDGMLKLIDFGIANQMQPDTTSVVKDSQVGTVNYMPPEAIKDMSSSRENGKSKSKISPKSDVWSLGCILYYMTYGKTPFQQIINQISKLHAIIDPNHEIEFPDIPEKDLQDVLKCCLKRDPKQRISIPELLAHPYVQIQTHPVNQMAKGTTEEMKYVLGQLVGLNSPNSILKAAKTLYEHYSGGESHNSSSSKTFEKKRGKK

[2] = target: Protein kinase C delta type (Homo sapiens) (UniProt Q05655); experiment: PKCdelta (h) Eurofins kinase panel
[3] = target: Fibroblast growth factor receptor 4 (Homo sapiens) (UniProt P22455); experiment: FGFR4(h) Eurofins kinase panel
[4] = target: Epidermal growth factor receptor (Homo sapiens) (UniProt P00533); experiment: EGFR(h) Eurofins kinase panel
[5] = target: Serine/threonine-protein kinase pim-1 (Homo sapiens) (UniProt P11309); experiment: Pim-1(h) Eurofins kinase panel
[6] = target: Receptor tyrosine-protein kinase erbB-2 (Homo sapiens) (UniProt P04626); experiment: ErbB2(h) Eurofins kinase panel
[7] = target: Proto-oncogene tyrosine-protein kinase receptor Ret (Homo sapiens) (UniProt P07949); experiment: Ret(h) Eurofins kinase panel
[8] = target: T2, Serine/threonine-protein kinase Nek2 (Homo sapiens) (UniProt P51955); experiment: NEK2(h) Eurofins kinase panel
T2 sequence (whole entry): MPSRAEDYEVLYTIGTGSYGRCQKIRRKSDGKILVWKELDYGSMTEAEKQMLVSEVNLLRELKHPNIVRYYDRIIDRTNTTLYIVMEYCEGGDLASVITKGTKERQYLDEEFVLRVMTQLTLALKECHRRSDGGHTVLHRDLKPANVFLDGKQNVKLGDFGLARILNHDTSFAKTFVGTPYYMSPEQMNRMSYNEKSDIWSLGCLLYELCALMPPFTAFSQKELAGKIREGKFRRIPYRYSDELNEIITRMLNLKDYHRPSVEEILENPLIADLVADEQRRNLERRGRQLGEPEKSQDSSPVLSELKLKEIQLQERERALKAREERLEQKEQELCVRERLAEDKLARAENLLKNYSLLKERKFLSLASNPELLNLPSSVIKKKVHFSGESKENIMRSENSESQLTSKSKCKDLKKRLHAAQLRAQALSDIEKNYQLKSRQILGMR

[9] = target: T3, Serine/threonine-protein kinase DCLK3 (Homo sapiens) (UniProt Q9C098); experiment: DCAMKL3(h) Eurofins kinase panel
T3 sequence (whole entry): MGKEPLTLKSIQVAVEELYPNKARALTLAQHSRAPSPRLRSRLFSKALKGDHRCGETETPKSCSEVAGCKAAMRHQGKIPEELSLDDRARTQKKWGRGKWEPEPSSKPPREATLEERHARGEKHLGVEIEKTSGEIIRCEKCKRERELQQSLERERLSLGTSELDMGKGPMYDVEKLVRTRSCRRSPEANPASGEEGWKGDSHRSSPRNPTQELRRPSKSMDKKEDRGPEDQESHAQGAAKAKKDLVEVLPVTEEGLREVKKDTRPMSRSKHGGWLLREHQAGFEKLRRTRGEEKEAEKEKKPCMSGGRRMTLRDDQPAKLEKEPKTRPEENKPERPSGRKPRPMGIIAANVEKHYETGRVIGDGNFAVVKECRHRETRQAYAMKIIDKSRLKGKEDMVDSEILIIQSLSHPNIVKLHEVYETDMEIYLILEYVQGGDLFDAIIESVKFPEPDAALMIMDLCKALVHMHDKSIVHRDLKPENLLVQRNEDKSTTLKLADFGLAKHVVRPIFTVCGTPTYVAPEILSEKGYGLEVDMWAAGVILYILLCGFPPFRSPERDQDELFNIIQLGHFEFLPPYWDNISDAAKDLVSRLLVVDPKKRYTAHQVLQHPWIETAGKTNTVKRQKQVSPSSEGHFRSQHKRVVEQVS

[10] = target: T4, G protein-coupled receptor kinase 3 (Homo sapiens) (UniProt P35626); experiment: GRK3(h) Eurofins kinase panel
T4 sequence (whole entry): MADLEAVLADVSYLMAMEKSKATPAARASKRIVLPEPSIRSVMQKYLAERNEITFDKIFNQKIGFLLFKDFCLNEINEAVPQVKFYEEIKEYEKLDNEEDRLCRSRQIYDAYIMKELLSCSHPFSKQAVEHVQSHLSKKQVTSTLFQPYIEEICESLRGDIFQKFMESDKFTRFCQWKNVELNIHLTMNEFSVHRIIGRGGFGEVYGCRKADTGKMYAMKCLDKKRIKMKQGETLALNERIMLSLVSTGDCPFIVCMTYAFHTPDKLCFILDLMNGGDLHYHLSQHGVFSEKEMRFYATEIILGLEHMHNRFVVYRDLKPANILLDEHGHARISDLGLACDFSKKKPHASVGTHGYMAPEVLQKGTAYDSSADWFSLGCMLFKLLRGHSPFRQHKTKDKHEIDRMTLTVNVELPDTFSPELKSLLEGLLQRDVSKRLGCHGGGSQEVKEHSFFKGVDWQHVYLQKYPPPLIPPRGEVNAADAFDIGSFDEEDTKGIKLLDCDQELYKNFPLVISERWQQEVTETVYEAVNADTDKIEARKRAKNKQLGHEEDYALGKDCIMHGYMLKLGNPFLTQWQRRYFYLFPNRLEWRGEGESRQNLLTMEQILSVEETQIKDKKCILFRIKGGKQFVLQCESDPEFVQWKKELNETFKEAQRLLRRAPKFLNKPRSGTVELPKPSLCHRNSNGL

[11] = target: Mitogen-activated protein kinase 8 (Homo sapiens) (UniProt P45983); experiment: JNK1alpha1(h) Eurofins kinase panel

Measured: % residual kinase activity

Chain of Protein kinase C delta type (Homo sapiens) (Q05655 whole entry, looked up): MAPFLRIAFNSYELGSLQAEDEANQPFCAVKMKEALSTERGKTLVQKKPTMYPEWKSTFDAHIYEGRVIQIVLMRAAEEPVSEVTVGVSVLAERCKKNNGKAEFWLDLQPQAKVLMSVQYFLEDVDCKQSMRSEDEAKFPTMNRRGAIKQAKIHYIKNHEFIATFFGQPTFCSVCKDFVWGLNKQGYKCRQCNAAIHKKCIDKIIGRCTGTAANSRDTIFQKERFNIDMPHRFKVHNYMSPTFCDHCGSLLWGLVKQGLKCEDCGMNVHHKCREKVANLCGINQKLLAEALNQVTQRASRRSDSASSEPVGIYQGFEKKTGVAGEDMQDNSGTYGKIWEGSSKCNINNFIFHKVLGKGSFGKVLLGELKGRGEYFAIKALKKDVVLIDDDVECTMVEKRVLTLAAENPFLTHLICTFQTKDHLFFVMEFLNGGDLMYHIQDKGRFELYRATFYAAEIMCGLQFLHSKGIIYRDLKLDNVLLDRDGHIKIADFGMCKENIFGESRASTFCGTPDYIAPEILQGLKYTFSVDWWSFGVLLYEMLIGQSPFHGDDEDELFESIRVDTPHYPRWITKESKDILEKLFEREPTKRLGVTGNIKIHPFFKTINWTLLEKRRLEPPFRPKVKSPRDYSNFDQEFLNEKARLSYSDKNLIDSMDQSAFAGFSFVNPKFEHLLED
Chain of Fibroblast growth factor receptor 4 (Homo sapiens) (P22455 22-802 limits assumed): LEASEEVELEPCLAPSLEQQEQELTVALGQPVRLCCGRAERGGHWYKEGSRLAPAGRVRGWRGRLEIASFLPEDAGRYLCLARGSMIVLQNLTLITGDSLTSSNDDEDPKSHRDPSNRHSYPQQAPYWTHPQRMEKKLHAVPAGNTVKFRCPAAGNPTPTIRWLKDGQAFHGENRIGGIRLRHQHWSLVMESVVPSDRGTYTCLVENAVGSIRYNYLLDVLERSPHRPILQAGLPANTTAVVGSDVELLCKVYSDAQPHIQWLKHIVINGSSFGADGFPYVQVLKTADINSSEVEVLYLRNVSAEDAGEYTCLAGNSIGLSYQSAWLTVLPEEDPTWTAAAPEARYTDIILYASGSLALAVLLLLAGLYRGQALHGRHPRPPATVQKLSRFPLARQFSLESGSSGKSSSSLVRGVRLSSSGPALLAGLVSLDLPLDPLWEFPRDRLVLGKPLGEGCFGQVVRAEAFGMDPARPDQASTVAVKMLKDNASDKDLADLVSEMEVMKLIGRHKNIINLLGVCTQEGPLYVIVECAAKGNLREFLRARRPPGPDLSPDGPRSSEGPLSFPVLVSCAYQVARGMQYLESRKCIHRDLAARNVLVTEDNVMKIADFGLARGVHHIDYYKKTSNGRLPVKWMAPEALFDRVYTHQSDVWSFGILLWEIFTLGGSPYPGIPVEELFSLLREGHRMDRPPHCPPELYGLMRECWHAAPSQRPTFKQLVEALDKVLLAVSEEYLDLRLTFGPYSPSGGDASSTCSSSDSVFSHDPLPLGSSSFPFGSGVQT
Chain of Receptor tyrosine-protein kinase erbB-2 (Homo sapiens) (P04626 whole entry): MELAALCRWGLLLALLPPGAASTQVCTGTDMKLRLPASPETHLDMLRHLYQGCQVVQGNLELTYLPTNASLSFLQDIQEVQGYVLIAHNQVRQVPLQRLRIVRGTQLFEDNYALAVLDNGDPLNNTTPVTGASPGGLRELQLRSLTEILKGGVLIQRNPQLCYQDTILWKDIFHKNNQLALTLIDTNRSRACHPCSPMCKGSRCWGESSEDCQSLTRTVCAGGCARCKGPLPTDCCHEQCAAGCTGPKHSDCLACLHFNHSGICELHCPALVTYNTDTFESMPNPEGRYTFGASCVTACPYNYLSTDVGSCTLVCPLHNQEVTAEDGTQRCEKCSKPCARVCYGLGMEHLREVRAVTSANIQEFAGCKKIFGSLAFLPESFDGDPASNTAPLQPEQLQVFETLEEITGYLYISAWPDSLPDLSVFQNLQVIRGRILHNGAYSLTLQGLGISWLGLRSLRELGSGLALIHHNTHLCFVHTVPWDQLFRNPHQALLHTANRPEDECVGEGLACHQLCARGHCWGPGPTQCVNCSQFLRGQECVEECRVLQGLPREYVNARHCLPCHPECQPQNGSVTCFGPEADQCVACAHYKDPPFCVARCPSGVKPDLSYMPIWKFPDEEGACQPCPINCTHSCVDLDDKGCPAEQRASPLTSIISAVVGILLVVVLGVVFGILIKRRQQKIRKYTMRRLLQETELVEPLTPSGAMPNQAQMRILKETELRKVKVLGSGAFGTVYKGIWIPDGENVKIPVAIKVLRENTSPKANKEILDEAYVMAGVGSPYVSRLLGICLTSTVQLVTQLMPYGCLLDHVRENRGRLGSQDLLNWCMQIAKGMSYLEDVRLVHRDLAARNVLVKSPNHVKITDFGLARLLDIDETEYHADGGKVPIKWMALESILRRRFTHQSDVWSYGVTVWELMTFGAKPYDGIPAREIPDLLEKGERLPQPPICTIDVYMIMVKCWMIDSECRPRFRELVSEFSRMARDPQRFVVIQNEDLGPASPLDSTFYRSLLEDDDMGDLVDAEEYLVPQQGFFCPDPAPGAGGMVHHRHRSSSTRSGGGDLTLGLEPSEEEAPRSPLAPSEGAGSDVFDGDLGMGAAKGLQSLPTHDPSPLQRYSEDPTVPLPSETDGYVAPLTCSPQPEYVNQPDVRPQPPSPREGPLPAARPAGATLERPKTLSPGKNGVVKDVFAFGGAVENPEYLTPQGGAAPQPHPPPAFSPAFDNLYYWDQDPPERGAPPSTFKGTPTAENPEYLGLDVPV
Chain of Mitogen-activated protein kinase 8 (Homo sapiens) (P45983 whole entry): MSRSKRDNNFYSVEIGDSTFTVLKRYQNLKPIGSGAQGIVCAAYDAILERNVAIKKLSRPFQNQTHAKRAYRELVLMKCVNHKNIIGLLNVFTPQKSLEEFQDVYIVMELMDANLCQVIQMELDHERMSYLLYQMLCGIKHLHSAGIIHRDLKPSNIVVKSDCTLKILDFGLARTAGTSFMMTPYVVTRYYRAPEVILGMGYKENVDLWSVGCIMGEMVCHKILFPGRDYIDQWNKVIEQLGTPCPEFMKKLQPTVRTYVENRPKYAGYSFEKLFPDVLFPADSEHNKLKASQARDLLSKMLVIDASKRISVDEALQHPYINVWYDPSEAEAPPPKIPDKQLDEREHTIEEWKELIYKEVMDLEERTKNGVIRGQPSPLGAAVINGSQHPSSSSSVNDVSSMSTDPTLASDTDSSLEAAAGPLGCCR
Chain of Serine/threonine-protein kinase pim-1 (Homo sapiens) (P11309 whole entry, looked up): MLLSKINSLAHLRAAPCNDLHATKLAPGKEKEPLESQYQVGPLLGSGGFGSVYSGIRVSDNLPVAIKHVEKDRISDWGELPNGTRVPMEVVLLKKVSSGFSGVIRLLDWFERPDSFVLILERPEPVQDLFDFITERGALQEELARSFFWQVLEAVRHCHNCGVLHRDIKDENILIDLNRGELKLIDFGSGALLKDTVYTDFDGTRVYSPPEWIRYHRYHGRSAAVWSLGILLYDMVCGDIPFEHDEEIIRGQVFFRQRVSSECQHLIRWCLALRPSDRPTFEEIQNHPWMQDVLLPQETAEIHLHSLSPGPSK
Chain of Epidermal growth factor receptor (Homo sapiens) (P00533 whole entry): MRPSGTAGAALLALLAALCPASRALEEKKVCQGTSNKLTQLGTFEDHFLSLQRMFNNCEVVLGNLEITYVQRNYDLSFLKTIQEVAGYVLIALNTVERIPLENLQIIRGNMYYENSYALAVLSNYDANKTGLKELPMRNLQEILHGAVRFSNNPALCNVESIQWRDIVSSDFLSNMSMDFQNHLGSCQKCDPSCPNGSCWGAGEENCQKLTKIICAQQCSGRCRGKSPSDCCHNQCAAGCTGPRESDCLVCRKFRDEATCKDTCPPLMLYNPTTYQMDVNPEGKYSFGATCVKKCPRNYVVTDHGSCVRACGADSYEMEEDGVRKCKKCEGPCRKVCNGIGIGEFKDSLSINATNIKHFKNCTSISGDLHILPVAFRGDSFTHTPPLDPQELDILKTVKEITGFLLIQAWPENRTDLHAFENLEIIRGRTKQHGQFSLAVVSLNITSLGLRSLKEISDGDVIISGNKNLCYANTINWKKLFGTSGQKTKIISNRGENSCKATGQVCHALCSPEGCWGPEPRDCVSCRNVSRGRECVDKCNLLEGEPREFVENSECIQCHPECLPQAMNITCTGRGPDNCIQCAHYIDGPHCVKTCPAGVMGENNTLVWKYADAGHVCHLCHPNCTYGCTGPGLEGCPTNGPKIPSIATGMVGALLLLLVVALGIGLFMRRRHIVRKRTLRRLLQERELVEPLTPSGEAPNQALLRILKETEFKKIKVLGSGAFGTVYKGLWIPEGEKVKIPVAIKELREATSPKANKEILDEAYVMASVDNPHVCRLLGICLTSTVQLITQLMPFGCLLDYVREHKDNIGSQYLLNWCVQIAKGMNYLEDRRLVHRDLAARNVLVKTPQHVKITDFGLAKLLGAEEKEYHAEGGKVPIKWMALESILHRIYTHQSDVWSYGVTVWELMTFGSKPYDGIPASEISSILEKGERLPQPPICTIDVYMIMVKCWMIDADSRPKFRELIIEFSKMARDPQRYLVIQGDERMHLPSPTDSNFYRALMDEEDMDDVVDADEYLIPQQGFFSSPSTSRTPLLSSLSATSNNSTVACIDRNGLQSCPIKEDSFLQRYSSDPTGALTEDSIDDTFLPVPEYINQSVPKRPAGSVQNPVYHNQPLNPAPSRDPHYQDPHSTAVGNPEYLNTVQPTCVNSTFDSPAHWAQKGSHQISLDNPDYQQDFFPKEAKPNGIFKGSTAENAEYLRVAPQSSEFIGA

CCc1ccccc1C(=O)Nc1n[nH]c2c(C)c(F)c(C3C(C#N)=C(C)N(C)C(C)=C3C#N)cc12 [BAY-3827]
inactive: [1] 90% | [2] 69% | [3] 99% | [4] 107% | [5] 119% | [6] 95% | [7] 23% | [8] 91% | [9] 100% | [10] 106% | [11] 72%

Source: ChEMBL document CHEMBL4507319 (2021)
